Values joined by “and” are separate entries in the source; they are usually repeats but may differ in a detail not shown here. Equal entries are not always repeated.
Columns and labels:
Type in all cases: in vivo
[1] = system: Soybean Looper (Chrysodeixis includens, PSEPIN, SBL); test: Bioassay 4: soybean looper, artificial diet, 128-cell tray; conditions: AI alone
Outline: (§1)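 Test solutions (0.0000004–0.04% w/v, i.e. 0.00005–5 μg/cm² on diet) were pipetted onto artificial lepidopteran diet and one 2nd-instar larva was placed per cell, 8 replicates per species, held at ~26° C. Live larvae were counted after 5 days; percent control used Abbott's correction against a solvent check.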

[2] = system: Western Flower Thrips (Frankliniella occidentalis, FRANOC, WFT); test: Bioassay 3: western flower thrips, cotton leaf disc dip; conditions: for Average % Control AI: 3 days; for Average % Control F1: F1 alone, 3 days after treatment
[3] = system: Corn Earworm (Helicoverpa zea, HELIZE, CEW); test: Bioassay 4: corn earworm, artificial diet, 128-cell tray; conditions: for Average % Control AI: AI alone; for Average % Control F1: F1 alone
Outline: as §1

[4] = AI alone at 1:1 rate to F1 0.78 (10^-6 Wt %)
[5] = AI alone at 1:1 rate to F1 3.125 (10^-6 Wt %)

| Compound | Average % Control AI ([1]; 0.000004 wt %) [%] | Average % Control AI [2, 5] [%] | Average % Control AI ([3]; 0.000004 wt %) [%] | Average % Control AI ([3]; 0.00004 wt %) [%] | Average % Control AI ([1]; 0.00004 wt %) [%] | other results |
| --- | --- | --- | --- | --- | --- | --- |
| CN1COCN(Cc2cnc(Cl)s2)/C1=N\[N+](=O)[O-] [Thiamethoxam] | 0.0 | 6.7 | 0.0 | 0.0 | – | Average % Control AI ([2]; AI alone at 1:1 rate to F1 0.195 (10^-6 Wt %)): 20.0%; Average % Control AI [2, 4]: 20.0% |
| CON=CNC(=O)c1ccc(C2=NOC(c3cc(Cl)cc(Cl)c3)(C(F)(F)F)C2)cc1C (stereo not drawn) [Fluxametamide] | 12.5 | 4.8 | 0.0 | 0.0 | – | – |
| CC1=NNC(=O)N(/N=C/c2cccnc2)C1 [Pymetrozine] | 12.5 | 21.4 | 0.0 | 0.0 | – | – |
| Chlorfenapyr | 25.0 | – | 0.0 | 12.5 | 37.5 | Average % Control AI [2, 4]: 16.7% |
| Cc1ccc(COCC(F)(F)F)c(N2C(=O)CS/C2=N\C(=O)Nc2ccc(-c3ncn(-c4ccc(OC(F)(F)F)cc4)n3)cc2F)c1 [F1] | – | – | – | – | – | Average % Control F1 ([2]; Wt % F1 (10^-6) 0.195, cotton leaf disc): 0.0% and 5.7%; Average % Control F1 ([2]; Wt % F1 (10^-6) 12.5, cotton leaf disc): 46.0%; Average % Control F1 ([2]; Wt % F1 (10^-6) 50, cotton leaf disc): 79.3%; Average % Control F1 ([3]; 0.0000004 wt %): 0.0%; Average % Control F1 ([3]; 0.00004 wt %): 75.0% |
| Cc1c(COC(=O)[C@@H]2[C@H](/C=C(\Cl)C(F)(F)F)C2(C)C)cccc1-c1ccccc1 (racemic) [Bifenthrin] | 0.0 | 11.5 | 0.0 | 0.0 | 0.0 | – |
| COC(=O)N(C(=O)N1CO[C@@]2(C(=O)OC)Cc3cc(Cl)ccc3C2=N1)c1ccc(OC(F)(F)F)cc1 [Indoxacarb] | 0.0 | – | 0.0 | 0.0 | – | Average % Control AI ([3]; 0.0004 wt %): 0.0% |
| C[C@]1(COC(=O)C2CC2)[C@@H]2C[C@H](O)[C@@]3(C)Oc4cc(-c5cccnc5)oc(=O)c4[C@H](O)[C@@H]3[C@@]2(C)CC[C@@H]1OC(=O)C1CC1 [Afidopyropen] | 0.0 | – | 0.0 | 0.0 | 0.0 | Average % Control AI ([2]; AI alone at 1:1 rate to F1 12.5 (10^-6 Wt %)): 0.0%; Average % Control AI ([2]; AI alone at 1:1 rate to F1 50 (10^-6 Wt %)): 5.7% |

From patent US20260182575A1, “MOLECULES HAVING PESTICIDAL UTILITY AND INTERMEDIATES AND PROCESSES RELATED THERETO” (CORTEVA AGRISCIENCE LLC, priority 2022, published 2026)
